Results taken from patent US20250171450A1, “NOVEL COELENTERAZINE DERIVATIVES” (National Institute of Advanced Industrial Science and …, priority 2022, published 2025).

Key:
[1] = test system: ALuc16, ALuc47, RLuc8.6SG, NanoLuc; assay: Enzyme specificity from luminescence brightness across the luminescent enzymes; type: cell-based; conditions: comparison of luminescence among ALuc16, ALuc47, RLuc8.6SG
Description: (§1) For luminescence measurements, the IVIS Imaging System purchased from PerkinElmer (old name: Caliper Life Sciences) was used.
(§2) As live cells expressing luminescent enzymes, COS-7 cells derived from the kidney of an African green monkey were used, and the evaluations were also conducted with the lysates produced by the lysis of these live cells.
(§3) The COS-7 cells derived from the kidney of the African green monkey were seeded in a 6-well microplate and were cultured in a CO2 incubator until 70% of the bottom area was covered by the cells. Using TransIT-LT1 reagent (Mirus), the plasmid encoding each of the following marine bioluminescent enzymes was transiently expressed in cells in each well.
(§4) After this lipofection, the cells were cultured in a CO2 incubator for one day. The cells were then subcultured into a 96-well microplate and further incubated for one day.
The wells with cells transfected with the same plasmid were conceptually divided into two, where one was used for lysate experiments and the other for live cell experiments. […] For the live cell experiments, after the cell medium was completely removed, the microplate was immediately sealed to prevent the sample evaporation until the luminescence measurements. […]

[2] = test system: ALuc47; assay: Evaluation of luminescence brightness, ALuc47 expressed in COS-7 cells (live cells and lysates); type: cell-based, luminescent plankton; conditions: 100 μM diluted luminescent substrate solution
Description: as §1, §2, §3, §4
(§5) The wells with cells transfected with the same plasmid were conceptually divided into two, where one was used for lysate experiments and the other for live cell experiments. For the lysate, first, the cell medium was removed from the 96-well microplate, and then 40 μL of cell lysis reagent (lysate) available from Promega K. K. was injected into each well and the plate was incubated for 15 minutes. For the live cell experiments, after the cell medium was completely removed, the microplate was immediately sealed to prevent the sample evaporation until the luminescence measurements.
(§6) Each luminescent substrate was first dissolved in methanol (PEG400, 25%) to 5 mM (stock solution), which was further diluted with phosphate-buffered saline (PBS) to 100 μM (this solution is hereinafter referred to as diluted luminescent substrate solution). This “diluted luminescent substrate solution” was dispensed in advance into each empty well of a 96-well microplate. […] The bioluminescence brightness from the 96-well black frame microplate was measured, and analyzed using the dedicated software Living Image ver. […]

[3] = test system: ALuc16; assay: Evaluation of luminescence brightness, ALuc16 expressed in COS-7 cells (live cells and lysates); type: cell-based, luminescent plankton; conditions: COS-7 live cells and lysates (FIGS. 1, 2); 100 μM diluted luminescent substrate solution
Description: as §1, §2, §3, §4, §5, §6

[4] = target: T1, NanoLuc (Oplophorus gracilirostris, UniProt Q9GV45, A31E/A60N/A81I/F95D/I117V/K70R/L54V/L99Q/M102K/N193R/P142E/Q151K/Q38R/Q45L/V71I/Y165I); assay: Evaluation of luminescence brightness, NanoLuc expressed in COS-7 cells (live cells and lysates); type: cell-based; conditions: COS-7 live cells and lysates (FIGS. 10, 11); 100 μM diluted luminescent substrate solution
T1 construct: host or cells: COS-7
T1 sequence (Q9GV45 28-196 with tags or gaps with the stated changes limits assumed): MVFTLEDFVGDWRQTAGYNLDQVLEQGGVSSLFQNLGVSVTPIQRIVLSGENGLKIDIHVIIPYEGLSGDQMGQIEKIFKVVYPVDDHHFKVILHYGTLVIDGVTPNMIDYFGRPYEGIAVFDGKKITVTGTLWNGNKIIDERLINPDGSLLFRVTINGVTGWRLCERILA
Description: as §1, §2, §3, §4, §5, §6

[5] = test system: Renilla luciferase 8.6-535SG (RLuc8.6SG); assay: Evaluation of luminescence brightness, RLuc8.6SG expressed in COS-7 cells (live cells and lysates); type: cell-based, Renilla reniformis; conditions: COS-7 live cells and lysates (FIGS. 7, 8); 100 μM diluted luminescent substrate solution
Description: as §1, §2, §3, §4, §5, §6

[6] = target: T1, NanoLuc; assay: Evaluation of bioluminescence spectrum, NanoLuc lysate; type: biochemical; conditions: COS-7 lysate (FIG. 12)
Description: Measurements were conducted using the luminescence spectrum device AB-1850 available from ATTO Corporation.
The measured spectra were obtained with a measurement parameter-tuned detector.
The COS-7 cells were seeded in a 6-well microplate and were cultured in a CO2 incubator until 70% of the bottom area was covered by the cells. Using TransIT-LT1 reagent (Mirus), the plasmid encoding each of the following marine bioluminescent enzymes was transiently expressed in cells in each well.
After this lipofection, the cells were cultured in a CO2 incubator for one day. After the cell medium was completely removed from the 6-well microplate, 200 μL of cell lysis reagent (lysate) available from Promega K. K. was added to each well and the microplate was incubated at room temperature for 15 minutes.
Twenty microliters of this lysate were dispensed into each PCR tube, and 20 μL of the 100 μM diluted luminescent substrate solution was added at the time of luminescence brightness evaluation. The PCR tubes were immediately placed in a spectrophotometer (AB-1850, ATTO Corporation), and the bioluminescence spectrum was measured in the high-sensitivity mode with integration modes of 0.5 seconds, 5 seconds, 10 seconds, and 30 seconds. […]

[7] = COS-7 live cells and lysates (FIGS. 4, 5)

SMILES | enzyme specificity [1] | luminescence for ALuc47 [2, 7] | luminescence for ALuc16 [3] | luminescence for NanoLuc [4] | luminescence for RLuc8.6SG [5] | luminescence spectral peak for NanoLuc [6] [nm] | luminescence for ALuc47 ([2]; COS-7 live cells (FIG. 4 only cited))
O=c1c(Cc2ccc(O)cc2)nc2c(Cc3ccccc3)[nH]c(-c3ccc4c(c3)OCCO4)cn1-2 [structural formula (1-1)] | enzyme specificity for ALuc16 | slight luminescence | high luminescence at high brightness | no luminescence activity | slight luminescence | – | –
O=c1c(Cc2ccc(O)cc2)nc2c(Sc3ccccc3)[nH]c(-c3ccc(O)cc3)cn1-2 [structural formula (2-1)] | – | also showed luminescence | luminescence activity | luminescence activity | luminescence activity | 507 | –
O=c1c(Cc2ccc(O)cc2)nc2c(Sc3ccc(F)cc3)[nH]c(-c3ccc(O)cc3)cn1-2 [structural formula (2-2)] | – | – | luminescence activity | slight luminescence | luminescence activity | – | slight luminescence
